According to PubChem BioAssay AID1963872 (Molecular Pharmacology Branch, DTP, NCI, 2024):

System: KRAS patient-derived spheroids with HUVEC/MSC, viability
Experiment: Anticancer human tumor 519858-162-T-J1-PDC patient-derived colon adenocarcinoma cell line growth inhibition [KRAS2]
Settings: for IC50: curve of first compound; for viability, T/C: stronger effect = lower value
In short: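 KRAS-mutant tumor cells were grown as spheroids with HUVEC endothelial cells and human MSCs as stroma. Targeted agents were tested alone and with KRAS pathway inhibitors. Doses started at or near clinical Cmax, or 10 microM, descending half-log.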

[1] = second compound 0.1 µM, first compound 0.0316 µM
[2] = second compound 0.1 µM, first compound 0.1 µM
[3] = second compound 0.1 µM, first compound 0.316 µM
[4] = second compound 0.1 µM, first compound 1 µM
[5] = second compound 0.1 µM, first compound 3.16 µM
[6] = second compound 0.1 µM, first compound 10 µM
[7] = second compound 0.316 µM, first compound 0.0316 µM
[8] = second compound 0.316 µM, first compound 0.1 µM
[9] = second compound 0.316 µM, first compound 0.316 µM
[10] = second compound 0.316 µM, first compound 1 µM
[11] = second compound 0.316 µM, first compound 3.16 µM
[12] = second compound 0.316 µM, first compound 10 µM
[13] = second compound 1 µM, first compound 0.0316 µM
[14] = second compound 1 µM, first compound 0.1 µM
[15] = second compound 1 µM, first compound 0.316 µM
[16] = second compound 1 µM, first compound 1 µM
[17] = second compound 1 µM, first compound 3.16 µM
[18] = second compound 1 µM, first compound 10 µM
[19] = second compound 3.16 µM, first compound 0.0316 µM
[20] = second compound 3.16 µM, first compound 0.1 µM
[21] = second compound 3.16 µM, first compound 0.316 µM
[22] = second compound 3.16 µM, first compound 1 µM
[23] = second compound 3.16 µM, first compound 3.16 µM
[24] = second compound 3.16 µM, first compound 10 µM
[25] = second compound 10 µM, first compound 0.0316 µM
[26] = second compound 10 µM, first compound 0.1 µM
[27] = second compound 10 µM, first compound 0.316 µM
[28] = second compound 10 µM, first compound 1 µM
[29] = second compound 10 µM, first compound 3.16 µM
[30] = second compound 10 µM, first compound 10 µM
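Further: compound exposure lasted seven days before readout.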
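Wherever viability, T/C is given: 100% = DMSO vehicle control viability.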

Row | Compound | IC50 (second compound 0.1 µM) | IC50 (second compound 0.316 µM) | IC50 (second compound 1 µM) | IC50 (second compound 3.16 µM) | viability, T/C [1] | viability, T/C [2] | viability, T/C [3] | viability, T/C [4] | viability, T/C [5] | viability, T/C [6] | viability, T/C [7] | viability, T/C [8] | viability, T/C [9] | viability, T/C [10] | viability, T/C [11] | viability, T/C [12] | viability, T/C [13] | viability, T/C [14] | viability, T/C [15] | viability, T/C [16] | further results
1 | COc1cc2nccc(Oc3ccc(NC(=O)C4(C(=O)Nc5ccc(F)cc5)CC4)cc3)c2cc1OC + COc1cc2nc(C)nc(NC(C)c3cc(N)cc(C(F)(F)F)c3)c2cc1OC1CCOC1 | > 10 µM | > 10 µM | > 10 µM | > 10 µM | 73.8% | 73.3% | 57% | 107% | 129% | 99.9% | 84.5% | 82% | 72.5% | 85.7% | 95.5% | 64% | 55.7% | 73.4% | 71.6% | 98% | IC50 (second compound 10 µM): 2.33 µM; viability, T/C [17]: 112%; viability, T/C [18]: 68.9%; viability, T/C [19]: 75%; viability, T/C [20]: 76.8%; viability, T/C [21]: 77.9%; viability, T/C [22]: 79.4%; viability, T/C [23]: 41.2%; viability, T/C [24]: 82%; viability, T/C [25]: 66.6%; viability, T/C [26]: 76.5%; viability, T/C [27]: 65.3%; viability, T/C [28]: 97.1%; viability, T/C [29]: 1.79%; viability, T/C [30]: 79.3%
2 | Cn1nccc1Nc1nccc(-c2cc3c(s2)C(C)(C)N(CCN2CCOCC2)C3=O)n1 + C=CC(=O)N1CCN(c2nc(OCC3CCCN3C)nc3c2CCN(c2cccc4cccc(C)c24)C3)CC1CC#N | 3.03 µM | 1.69 µM | 0.693 µM | < 0.0316 µM | 76.3% | 87.3% | 94.7% | 60.1% | 53.7% | 25.3% | 77.7% | 74.7% | 72% | 53.3% | 44.8% | 32.8% | 71.6% | 57.1% | 54% | 53% | IC50 (second compound 0.0316 µM): 4.03 µM; viability, T/C (second compound 0.0316 µM, first compound 0.0316 µM): 78.1%; viability, T/C (second compound 0.0316 µM, first compound 0.1 µM): 75.3%; viability, T/C (second compound 0.0316 µM, first compound 0.316 µM): 82.8%; viability, T/C (second compound 0.0316 µM, first compound 1 µM): 68.4%; viability, T/C (second compound 0.0316 µM, first compound 3.16 µM): 56.6%; viability, T/C (second compound 0.0316 µM, first compound 10 µM): 28.1%; viability, T/C [17]: 36.7%; viability, T/C [18]: 27.1%; viability, T/C [19]: 47.6%; viability, T/C [20]: 54.6%; viability, T/C [21]: 39.8%; viability, T/C [22]: 30%; viability, T/C [23]: 41.5%; viability, T/C [24]: 17.6%
3 | COc1cc(Nc2ncc3c(n2)-c2ccc(Cl)cc2C(c2c(F)cccc2OC)=NC3)ccc1C(=O)O + COc1cc2nc(C)nc(NC(C)c3cc(N)cc(C(F)(F)F)c3)c2cc1OC1CCOC1 | > 10 µM | > 10 µM | > 10 µM | > 10 µM | 76.3% | 72.5% | 68% | 75.6% | 88.5% | 87.6% | 79.3% | 78.1% | 62.2% | 82.8% | 78.4% | 115% | 85.9% | 66.4% | 76.6% | 74.8% | IC50 (second compound 10 µM): > 10 µM; viability, T/C [17]: 68.6%; viability, T/C [18]: 72.3%; viability, T/C [19]: 78.9%; viability, T/C [20]: 72%; viability, T/C [21]: 60.6%; viability, T/C [22]: 80.9%; viability, T/C [23]: 60.6%; viability, T/C [24]: 76.4%; viability, T/C [25]: 65.3%; viability, T/C [26]: 74.2%; viability, T/C [27]: 54.8%; viability, T/C [28]: 63.5%; viability, T/C [29]: 60.6%; viability, T/C [30]: 75.3%
4 | COC(=O)c1ccc2c(C(=Nc3ccc(N(C)C(=O)CN4CCN(C)CC4)cc3)c3ccccc3)c(O)[nH]c2c1 + C=CC(=O)N1CCN(c2nc(=O)n(-c3c(C)ccnc3C(C)C)c3nc(-c4c(O)cccc4F)c(F)cc23)C(C)C1 | > 10 µM | > 10 µM | > 10 µM | > 10 µM | 121% | 86.2% | 85.9% | 101% | 102% | 91.1% | 106% | 83.8% | 77.8% | 76.2% | 89.4% | 94.1% | 89.4% | 67.9% | 111% | 90.7% | IC50 (second compound 10 µM): > 10 µM; viability, T/C [17]: 76%; viability, T/C [18]: 60.1%; viability, T/C [19]: 96.9%; viability, T/C [20]: 75.1%; viability, T/C [21]: 82.8%; viability, T/C [22]: 66.3%; viability, T/C [23]: 70.7%; viability, T/C [24]: 84.2%; viability, T/C [25]: 72.9%; viability, T/C [26]: 74.3%; viability, T/C [27]: 60.1%; viability, T/C [28]: 80.4%; viability, T/C [29]: 101%; viability, T/C [30]: 75.3%
